In US9676777B2, “Compounds useful for producing an optically active diazabicyclooctane compound” (Meiji Seika Pharma Co., Ltd., priority 2010, dated 2017):

Tests used:
[1] = test system: P. aeruginosa PAO1 variant, which constitutively expresses AmpC; test: Combinatorial antibacterial activity (MIC of PIPC) in combination with test compound, agar plate dilution; assay type: cell-based, Pseudomonas aeruginosa; conditions: for MIC: Pseudomonas aeruginosa, PAO1; for effect of the compound in combination with an antibiotic: result in words
Procedure: The biological activity of the above-mentioned compounds represented by formulae (H) and (s) can be measured as follows. Specifically, an enzyme inhibitory activity (IC50 value) against AmpC enzyme which is a class C β-lactamase was determined using nitrocephin as a substrate to check whether or not the compounds had the inhibitory activity and compare the activities of them. Further, using constitutive AmpC producing Pseudomonas aeruginosa, a combined antimicrobial activity (MIC) was measured when using Piperacillin (PIPC) as an antibiotic and the compound of formula (H) or (s) in combination to check whether or not the antimicrobial activity of PIPC could be restored.
The combinatorial effect of the test compound with a β-lactam agent against bacteria was evaluated using AmpC constitutive expression strain selected from P. aeruginosa PAO1 through agent exposure. Using piperacillin (PIPC, Sigma-Aldrich) as a β-lactam agent, measurement was conducted by agar plate dilution process in which minimal inhibitory concentration (MIC) of PIPC is based on Clinical and Laboratory Standards Institute (CLSI process). That is, an agara plate containing 4 μg/mL (final concentration) of test compound and PIPC at each concentration in Mueller-Hinton agar (Becton, Dickinson and Company) was made, and bacteria cultured overnight in cation-adjusted Muller-Hinton broth (Becton, Dickinson and Company) were adjusted in the same medium so as to have 10^4 CFU/spot and inoculated on a plate containing an agent. This plate containing an agent was cultured overnight at 35° C., and the minimum agent concentration in which no growth of bacteria is observed was determined to be MIC.

AmpC = AmpC (Pseudomonas aeruginosa (strain ATCC 15692 / DSM 22644 / CIP 104116 / JCM 14847 / LMG 12228 / 1C / PRS 101 / PAO1), UniProt P24735); assay type: biochemical; conditions: result in words
Procedure: The biological activity of the above-mentioned compounds represented by formulae (H) and (s) can be measured as follows. […] Further, using constitutive AmpC producing Pseudomonas aeruginosa, a combined antimicrobial activity (MIC) was measured when using Piperacillin (PIPC) as an antibiotic and the compound of formula (H) or (s) in combination to check whether or not the antimicrobial activity of PIPC could be restored.
Using P. aeruginosa PAO1 genome as a template, a DNA for encoding an AmpC β-lactamase domain excluding a signal peptide was amplified with PCR. This PCR product was incorporated into pET-28b(+)vector (Merck), introduced into E. coli BL21 (Merck), and, under induction of 1 mM isopropyl-β-D-(−)-thiogalactopyranoside (Nacalai Tesque), cultured overnight at 20° C. to express AmpC. After the bacterial cell was collected, AmpC was purified from the cell extract obtained by ultrasonic treatment, using CM Sepharose Fast Flow (GE Healthcare) and HiTrap Heparin HP (GE Healthcare) at 4° C.

Chain of AmpC (P24735 27-397): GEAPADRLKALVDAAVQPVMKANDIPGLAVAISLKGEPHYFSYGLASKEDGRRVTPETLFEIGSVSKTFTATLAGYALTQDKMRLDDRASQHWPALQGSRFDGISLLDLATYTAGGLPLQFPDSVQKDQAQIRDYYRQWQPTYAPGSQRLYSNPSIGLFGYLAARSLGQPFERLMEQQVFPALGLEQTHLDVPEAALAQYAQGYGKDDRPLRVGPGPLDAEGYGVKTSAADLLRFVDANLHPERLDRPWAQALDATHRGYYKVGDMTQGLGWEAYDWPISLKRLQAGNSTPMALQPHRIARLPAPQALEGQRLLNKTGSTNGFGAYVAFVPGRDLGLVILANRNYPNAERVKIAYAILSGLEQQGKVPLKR

Row | SMILES | MIC [1] [mg/L] | β-lactamase enzyme inhibitory activity (AmpC) | effect of the compound in combination with an antibiotic [1]
1 | C[C@]1(Cn2ccnn2)[C@H](C(=O)[O-])N2C(=O)C[C@H]2S1(=O)=O.[Na+] [TAZ, Tazobactam, reference compound] | 64 | – | –
2 | NC(=O)[C@@H]1CC[C@@H]2CN1C(=O)N2OS(=O)(=O)[O-].[Na+] [Example 23, (2S,5R)-1,6-Diazabicyclo[3.2.1]octane-2-carboxamide, 7-oxo-6-(sulfoxy)-monosodium salt] | 4 | exhibited the activities | exhibited the activities
3 | NC(=O)[C@H]1CC[C@H]2CN1C(=O)N2OS(=O)(=O)[O-].[Na+] [Example 24, (2R,5S)-1,6-Diazabicyclo[3.2.1]octane-2-carboxamide, 7-oxo-6-(sulfoxy)-monosodium salt] | 64 | exhibited no activity | exhibited no activity
